Experimental findings from patent US9682969B2, “Phthalazinone compounds and methods for the treatment of cystic fibrosis” (FLATLEY DISCOVERY LAB, LLC, priority 2013, dated 2017) are described below.

pEC50: −log10 of the molar value. Some results are limits rather than exact numbers.

For the assay, the target named is human F508del CFTR (Homo sapiens (Human), UniProt P13569, DEL508-508). The experiment in a line: CFTR-YFP High Throughput Assay (YFP flux assay, FRT cells). The class given is cell-based. As to conditions: FRT cells expressing human F508del CFTR and YFP. On the procedure: This protocol is designed to selectively screen small molecule compounds for F508del CFTR corrector activities in the YFP (yellow fluorescent protein) flux assay. In this protocol, the cells are incubated with testing compounds for 24 hours, washed with PBS, stimulated with forskolin and a standard potentiator, and fluorescence in each plate well is measured kinetically read on a 384-well plate reader, such as the Hamamatsu FDSS-6000.
Chain of human F508del CFTR (P13569 other isoform, or with tags, fused parts or gaps del F508-F508): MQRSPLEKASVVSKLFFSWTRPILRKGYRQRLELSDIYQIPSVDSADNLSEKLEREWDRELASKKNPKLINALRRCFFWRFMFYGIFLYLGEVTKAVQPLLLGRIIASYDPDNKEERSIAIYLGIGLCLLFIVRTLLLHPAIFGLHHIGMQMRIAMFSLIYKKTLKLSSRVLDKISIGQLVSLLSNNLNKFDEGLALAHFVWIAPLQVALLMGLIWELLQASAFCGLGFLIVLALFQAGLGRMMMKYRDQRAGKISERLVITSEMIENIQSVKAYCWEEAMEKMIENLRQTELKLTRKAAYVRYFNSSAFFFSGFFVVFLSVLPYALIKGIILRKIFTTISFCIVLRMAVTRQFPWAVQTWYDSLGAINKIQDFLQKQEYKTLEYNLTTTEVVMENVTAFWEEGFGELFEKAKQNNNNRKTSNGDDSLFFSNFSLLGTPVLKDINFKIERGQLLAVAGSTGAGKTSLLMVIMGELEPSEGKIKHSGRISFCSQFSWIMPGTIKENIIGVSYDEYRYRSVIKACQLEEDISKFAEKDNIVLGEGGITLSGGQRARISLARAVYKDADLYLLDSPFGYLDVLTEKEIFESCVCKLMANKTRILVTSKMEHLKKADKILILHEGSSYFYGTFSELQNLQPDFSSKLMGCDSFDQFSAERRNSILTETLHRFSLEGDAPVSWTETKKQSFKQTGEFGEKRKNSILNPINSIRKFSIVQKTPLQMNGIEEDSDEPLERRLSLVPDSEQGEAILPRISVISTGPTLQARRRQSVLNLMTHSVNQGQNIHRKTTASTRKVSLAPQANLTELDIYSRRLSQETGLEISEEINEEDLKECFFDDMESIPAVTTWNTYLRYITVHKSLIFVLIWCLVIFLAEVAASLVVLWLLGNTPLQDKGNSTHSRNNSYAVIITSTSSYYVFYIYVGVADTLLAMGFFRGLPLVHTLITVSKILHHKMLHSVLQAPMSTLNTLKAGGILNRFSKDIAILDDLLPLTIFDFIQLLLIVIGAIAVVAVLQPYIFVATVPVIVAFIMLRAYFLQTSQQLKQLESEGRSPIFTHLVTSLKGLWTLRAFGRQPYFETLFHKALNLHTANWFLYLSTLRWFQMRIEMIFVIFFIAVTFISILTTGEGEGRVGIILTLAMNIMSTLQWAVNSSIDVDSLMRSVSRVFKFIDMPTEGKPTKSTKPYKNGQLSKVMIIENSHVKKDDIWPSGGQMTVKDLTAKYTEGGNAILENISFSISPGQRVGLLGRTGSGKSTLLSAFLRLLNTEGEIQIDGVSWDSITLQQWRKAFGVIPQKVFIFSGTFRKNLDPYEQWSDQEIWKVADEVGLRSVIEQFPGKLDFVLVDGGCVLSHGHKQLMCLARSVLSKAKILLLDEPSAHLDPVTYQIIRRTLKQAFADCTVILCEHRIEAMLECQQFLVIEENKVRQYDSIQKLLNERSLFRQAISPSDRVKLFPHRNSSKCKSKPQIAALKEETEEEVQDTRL
YFP fluorescence intensity values are acquired at high speed before and after iodide buffer is injected to the assay cells. Iodide enters the cells via active CFTR channels in the plasma membrane, and quenches the YFP fluorescence. The rate of fluorescence quenching is proportionate to the total CFTR activity in the cell membrane. F508del CFTR correctors increase the number of CFTR molecules in the testing cell plasma membrane, and thereby accelerate YFP quenching.
This method was initially developed for bench top plate readers (Galietta, J, Jayaraman, S and Verkman, A S. Cell-based assay for high-throughput quantitative screening of CFTR chloride transport agonists. Am. J. Physiol. Cell Physiol. (2001), 281: C173), and was adapted to the HTS format (Sui J, Cotard S, Andersen J, Zhu P, Staunton J, Lee M, Lin S. Optimization of a Yellow fluorescent protein-based iodide influx high-throughput screening assay for cystic fibrosis transmembrane conductance regulator (CFTR) modulators. Assay Drug Dev Technol. (2010), 8: 656-668).
Fisher Rat Thyroid (FRT) cells stably expressing both human F508del CFTR and a halide-sensitive yellow fluorescent protein (YFP-H148Q/I152L 25,22) (Galietta et al. Am. J. Physiol Cell Physiol 281(5), C1734, 2001) were cultured on plastic surface in Coon's modified Ham's F12 medium supplemented with FBS 10%, L-glutamine 2 mM, penicillin 100 U/ml, and streptomycin […]. G418 (0.75-1.0 mg/ml) and zeocin (3.2 ug/ml) were used for selection of FRT cells expressing F508del CFTR and YFP. For primary screening, FRT cells were plated into 384-well black wall, transparent bottom microtiter plates (Costar; Corning Inc.) at a cell density of 20,000-40,000 per well. Test compound was applied to the cells at varying concentrations ranging from 2 nM-40 μM in either a 2-fold or 3-fold dilution series. Cells were incubated in a cell culture incubator at 37° C. with 5% CO2 for 24-26 h. Assay plates were washed with DPBS media (Thermo, cat# SH30028.02) to remove unbound cells and compound. Stimulation media (25 μL) containing 20 μM Forskolin & 30 μM P3 [6-(Ethyl-phenyl-sulfonyl)-4-oxo-1,4-dihydro-quinoline-3-carboxylic acid 2-methoxy-benzylamide] in Hams F-12 coon's modified media was added to the plate wells and incubated at room temperature for 60-120 min. 25 μL of HEPES-PBS-I buffer (10 mM HEPES, 1 mM MgCl2, 3 mM KCl, 1 mM CaCl2, 150 mM NaI) was then added and fluorescence quench curves (Excitation 500 nm/Emission 540 nm; exposure 136 ms) were immediately recorded on an FDSS-6000 plate reader (Hamamatsu). Quench rates were derived from least squares fitting of the data as described by Sui et al (2010).
This protocol is designed to selectively screen small molecule compounds for F508del CFTR potentiator activities in the YFP (yellow fluorescent protein) flux assay. Such compounds act acutely to stimulate CFTR already expressed on the membrane surface. In this protocol, the cells are incubated at 27° C. for 24 hours to homogeneously boost F508del CFTR expression in the cell membrane (low temperature correction), washed with PBS, treated with test compound, and CFTR activity is stimulated with forskolin for 1-2 hr. Measurement of ion flux is initiated by addition of iodide-containing buffer, and YFP quenching is kinetically recorded using a 384-well plate reader, such as the Hamamatsu FDSS-6000.
YFP fluorescence intensity values are acquired at high speed over a 1 min time course before and after iodide buffer is injected to the assay cells. […]
In the case of `Cc1nc2ccc(N(C)C(=O)Cn3nc(-c4cccc(Cl)c4)c4ccccc4c3=O)cc2o1` [Example 1, 2-(4-(3-chlorophenyl)-1-oxophthalazin-2(1H)-yl)-N-methyl-N-(2-methylbenzo[d]oxazol-6-yl)acetamide], the pEC50 was greater than 5.00.
In the case of `Cc1nc2ccc(N(C)C(=O)Cn3nc(-c4cccc(F)c4)c4ccccc4c3=O)cc2o1` [Example 2, 2-(4-(3-fluorophenyl)-1-oxophthalazin-2(1H)-yl)-N-methyl-N-(2-methylbenzo[d]oxazol-6-yl)acetamide] it was greater than 5.00.
For `COc1ccc2c(-c3cccc(F)c3)nn(CC(=O)N(C)c3ccc4nc(C)oc4c3)c(=O)c2c1` [Example 3, 2-(4-(3-fluorophenyl)-7-methoxy-1-oxophthalazin-2(1H)-yl)-N-methyl-N-(2-methylbenzo[d]oxazol-6-yl)acetamide] the value was greater than 5.00; for `COc1ccc2c(-c3cccc(Cl)c3)nn(CC(=O)N(C)c3ccc4nc(C)oc4c3)c(=O)c2c1` [Example 4, 2-(4-(3-chlorophenyl)-7-methoxy-1-oxophthalazin-2(1H)-yl)-N-methyl-N-(2-methylbenzo[d]oxazol-6-yl)acetamide], greater than 5.00.
For `COc1ccc2c(-c3cccc(Cl)c3)nn(CC(=O)N(c3ccc4nc(C)oc4c3)C3CC3)c(=O)c2c1` [Example 5, 2-(4-(3-chlorophenyl)-7-methoxy-1-oxophthalazin-2(1H)-yl)-N-cyclopropyl-N-(2-methylbenzo[d]oxazol-6-yl)acetamide] the value was greater than 5.00; for `[2H]C([2H])([2H])N(C(=O)Cn1nc(-c2cccc(Cl)c2)c2ccc(OC)cc2c1=O)c1ccc2nc(C)oc2c1` [Example 6, 2-(4-(3-chlorophenyl)-7-methoxy-1-oxophthalazin-2(1H)-yl)-N-(methyl-d3)-N-(2-methylbenzo[d]oxazol-6-yl)acetamide], greater than 5.00.
Take `[2H]C([2H])(C)N(C(=O)Cn1nc(-c2cccc(Cl)c2)c2ccc(OC)cc2c1=O)c1ccc2nc(C)oc2c1` [Example 7, 2-(4-(3-chlorophenyl)-7-methoxy-1-oxophthalazin-2(1H)-yl)-N-(ethyl-1,1-d2)-N-(2-methylbenzo[d]oxazol-6-yl)acetamide]: the pEC50 is greater than 5.00.
In the case of `CCN(C(=O)Cn1nc(-c2cccc(F)c2)c2ccc(OC)cc2c1=O)c1ccc2nc(C)oc2c1` [Example 8, N-ethyl-2-(4-(3-fluorophenyl)-7-methoxy-1-oxophthalazin-2(1H)-yl)-N-(2-methylbenzo[d]oxazol-6-yl)acetamide] it was greater than 5.00; in that of `CCN(C(=O)Cn1nc(-c2cccc(Cl)c2)c2ccc(OC)cc2c1=O)c1ccc2nc(C)oc2c1` [Example 9, 2-(4-(3-chlorophenyl)-7-methoxy-1-oxophthalazin-2(1H)-yl)-N-ethyl-N-(2-methylbenzo[d]oxazol-6-yl)acetamide], greater than 5.00; in that of `COc1cc2c(=O)n(CC(=O)N(C)c3ccc4nc(C)oc4c3)nc(-c3cccc(F)c3)c2cc1Cl` [Example 10, 2-(6-chloro-4-(3-fluorophenyl)-7-methoxy-1-oxophthalazin-2(1H)-yl)-N-methyl-N-(2-methylbenzo[d]oxazol-6-yl)acetamide], greater than 5.00.
For `COc1cc2c(=O)n(CC(=O)N(C)c3ccc4nc(C)oc4c3)nc(-c3cccc(Cl)c3)c2cc1Cl` [Example 11, 2-(6-chloro-4-(3-chlorophenyl)-7-methoxy-1-oxophthalazin-2(1H)-yl)-N-methyl-N-(2-methylbenzo[d]oxazol-6-yl)acetamide] the value was greater than 5.00.
Turning to `COc1ccc2c(-c3cccc(F)c3)nn(CC(=O)N(c3ccc4nc(C)oc4c3)C3CC3)c(=O)c2c1` [Example 12, N-cyclopropyl-2-(4-(3-fluorophenyl)-7-methoxy-1-oxophthalazin-2(1H)-yl)-N-(2-methylbenzo[d]oxazol-6-yl)acetamide], the pEC50 is greater than 5.00.
Regarding `Cc1nc2ccc(N(C)C(=O)Cn3nc(-c4cccc(F)c4)c4ccc(O)cc4c3=O)cc2o1` [Example 13, 2-(4-(3-fluorophenyl)-7-hydroxy-1-oxophthalazin-2(1H)-yl)-N-methyl-N-(2-methylbenzo[d]oxazol-6-yl)acetamide], the pEC50 was greater than 5.00.
For `Cc1nc2ccc(N(C(=O)Cn3nc(-c4cccc(F)c4)c4ccc(O)cc4c3=O)C3CC3)cc2o1` [Example 14, N-cyclopropyl-2-(4-(3-fluorophenyl)-7-hydroxy-1-oxophthalazin-2(1H)-yl)-N-(2-methylbenzo[d]oxazol-6-yl)acetamide] the value was greater than 5.00; for `CCOc1ccc2c(-c3cccc(F)c3)nn(CC(=O)N(C)c3ccc4nc(C)oc4c3)c(=O)c2c1` [Example 17, 2-(7-ethoxy-4-(3-fluorophenyl)-1-oxophthalazin-2(1H)-yl)-N-methyl-N-(2-methylbenzo[d]oxazol-6-yl)acetamide], greater than 5.00.
On to `CCOc1ccc2c(-c3cccc(Cl)c3)nn(CC(=O)N(c3ccc4nc(C)oc4c3)C3CC3)c(=O)c2c1` [Example 18, 2-(4-(3-chlorophenyl)-7-ethoxy-1-oxophthalazin-2(1H)-yl)-N-cyclopropyl-N-(2-methylbenzo[d]oxazol-6-yl)acetamide], for which the pEC50 was greater than 5.00.
In the case of `CCOc1ccc2c(-c3cccc(Cl)c3)nn(CC(=O)N(C)c3ccc4nc(C)oc4c3)c(=O)c2c1` [Example 19, 2-(4-(3-chlorophenyl)-7-ethoxy-1-oxophthalazin-2(1H)-yl)-N-methyl-N-(2-methylbenzo[d]oxazol-6-yl)acetamide], the pEC50 is greater than 5.00.
In the case of `[2H]C([2H])([2H])N(C(=O)Cn1nc(-c2cccc(Cl)c2)c2ccc(OC(C)C)cc2c1=O)c1ccc2nc(C)oc2c1` [Example 20, 2-(4-(3-chlorophenyl)-7-isopropoxy-1-oxophthalazin-2(1H)-yl)-N-(methyl-d3)-N-(2-methylbenzo[d]oxazol-6-yl)acetamide] it was greater than 5.00; in that of `CCOc1ccc2c(-c3cccc(F)c3)nn(CC(=O)N(c3ccc4nc(C)oc4c3)C3CC3)c(=O)c2c1` [Example 21, N-cyclopropyl-2-(7-ethoxy-4-(3-fluorophenyl)-1-oxophthalazin-2(1H)-yl)-N-(2-methylbenzo[d]oxazol-6-yl)acetamide], greater than 5.00; in that of `[2H]C([2H])([2H])N(C(=O)Cn1nc(-c2cccc(F)c2)c2ccc(OCC)cc2c1=O)c1ccc2nc(C)oc2c1` [Example 22, 2-(7-ethoxy-4-(3-fluorophenyl)-1-oxophthalazin-2(1H)-yl)-N-(methyl-d3)-N-(2-methylbenzo[d]oxazol-6-yl)acetamide], greater than 5.00.
For `[2H]C([2H])([2H])N(C(=O)Cn1nc(-c2cccc(Cl)c2)c2ccc(OCC3CC3)cc2c1=O)c1ccc2nc(C)oc2c1` [Example 23, 2-(4-(3-chlorophenyl)-7-(cyclopropylmethoxy)-1-oxophthalazin-2(1H)-yl)-N-(methyl-d3)-N-(2-methylbenzo[d]oxazol-6-yl)acetamide], the pEC50 was greater than 5.00.
In the case of `Cc1nc2ccc(N(C)C(=O)Cn3nc(-c4cccc(Cl)c4)c4ccc(OCC5CC5)cc4c3=O)cc2o1` [Example 24, 2-(4-(3-chlorophenyl)-7-(cyclopropylmethoxy)-1-oxophthalazin-2(1H)-yl)-N-methyl-N-(2-methylbenzo[d]oxazol-6-yl)acetamide] it was greater than 5.00; in that of `Cc1nc2ccc(N(C)C(=O)Cn3nc(-c4cccc(Cl)c4)c4ccc(OC(C)C)cc4c3=O)cc2o1` [Example 25, 2-(4-(3-chlorophenyl)-7-isopropoxy-1-oxophthalazin-2(1H)-yl)-N-methyl-N-(2-methylbenzo[d]oxazol-6-yl)acetamide], greater than 5.00.
